This is an account of results in US20230121926A1, “METHODS FOR TISSUE REGENERATION AND KITS THEREFOR” (THE BOARD OF TRUSTEES OF THE LELAND STANFORD JUNIOR …, priority 2020, published 2023).

A short description of data set [1]: Systemic penetration of topically applied FAKI (mass spectrometry of peripheral blood). In kind it is in vivo, pig. The settings on record: topical, approximately 7-10% of total body surface area, three pigs. The protocol:
FIG. 6B. Acute, systemic, and implantation toxicity testing of FAKI hydrogel in the porcine model. Mass spectrometry of peripheral blood samples of FAKI-treated pigs was performed to assess systemic penetration of topically applied FAKI covering approximately 7-10% of the total body surface area relative to serum FAKI levels after oral administration of FAKI from a human study. Serum FAKI concentrations via localized delivery were negligible in three independent experiments collected from three different pigs.

The nature of data set [2]: Dose of VS-6062 delivered to porcine fresh wounds (tissue level by wound depth). Type of data set: in vivo, red Duroc pigs. As for the experimental part: Porcine deep partial-thickness excisional wound model: Prior to operation, animals were administered oral amoxicillin 10 mg/kg for 24 hours. General anesthesia was administered by Veterinary Services personnel and was established with intramuscular telazol 6-8 mg/kg, administered once as a pre-anesthetic. Animals were then intubated using an endotracheal tube and maintained on 1.5-3% of inhaled isoflurane throughout the procedure. The hair on the back was clipped and skin was cleansed initially with Betadine© solution following by a 70% alcohol rinse. Excisional wounds were created with a standard electric Zimmer dermatome (Zimmer Biomet, Warsaw, Ind.). Up to eight wounds, approximately 5 cm×5 cm in size, were created on each lateral flank, with 3-5 cm intervals between wounds (FIG. 1A). Multiple dermatome passes were performed to create deep partial-thickness wounds of uniform 0.07 inch depth. The wounds were randomly assigned to receive either FAKI hydrogel (W_IF), blank hydrogel (‘placebo’, W_H), or no hydrogel (wounded control, W) (n=6-9 wounds per condition). […] In a time-dependent study, the amount of VS-6062 detected at approximately 0.5 mm wound depth over 24 hours ranged from 30-100 microG/g tissue by weight. The amount of VS-6062 detected beyond 1 mm wound depth was less than 5 microG/g tissue.

With `CN(c1ncccc1CNc1nc(Nc2ccc3c(c2)CC(=O)N3)ncc1C(F)(F)F)S(C)(=O)=O` [VS-6062], the “serum FAKI concentrations via localized delivery” value in data set [1] was “negligible”. Also, the “amount of VS-6062 detected in wound tissue” value was 30-100 microG/g tissue by weight in data set [2] (approximately 0.5 mm wound depth, over 24 hours) and “less than 5 microG/g tissue” in data set [2] (beyond 1 mm wound depth).
